What all share (format): in vivo
Data set [1] can be described thus: Acute toxicity in the rat (LD50, Litchfield and Wilcoxon). The note with it: in vivo, 7 days observation. On the procedure: (§1) The acute toxicity of the proucts was studied on male and female adult mice of Swiss stock, and on male and female adult rats of Sprague-Dawley stock, by oral and subcutaneous administration. For each method of administration, the tested doses were administered in geometrical progression to 10 animals (5 males and 5 females). After treatment, the animals were kept under observation for 7 days. On termination of this period, the LD50 and the relative confidence limits were calculated by the Litchfield and Wilcoxon method (Pharmacol. Exp. Ther. 96-99, 1949).

Data set [2] in a line: Acute toxicity in the mouse (LD50, Litchfield and Wilcoxon). As to conditions: in vivo, 7 days observation. As to the method:
as §1

The test system of data set [3] is rats of Sprague-Dawley stock. Description: Acute toxicity in the rat (LD50, Litchfield and Wilcoxon). As to conditions: 7 days observation. On the procedure:
as §1

The next data set deals with mice of Swiss stock. Kind of data set: Acute toxicity in the mouse (LD50, Litchfield and Wilcoxon). As to conditions: 7 days observation. As to the method: as §1

Three molecules from patent US4559360A, “Cysteine derivatives, a process for their preparation, and pharmaceutical compositions which contain them” (Magis Farmaceutici S.R.L., priority 1984, dated 1985) can be followed below.

Regarding `CC(=O)Oc1ccccc1C(=O)N[C@@H](CSCC(=O)O)C(=O)O` [MSF 01, S-(carboxymethyl)-N-(2-acetoxybenzoyl)-L-cysteine], the LD50 at 168 h in data set [1] (oral) amounted to 4800 mg/kg; in data set [1] (sc, subcutaneous) it was 4500 mg/kg; in data set [2] (oral), 4800 mg/kg; in data set [2] (sc, subcutaneous) it was 4500 mg/kg.
Take `CC(=O)Oc1ccccc1C(=O)OC(=O)CSC[C@H](N)C(=O)OC(=O)c1ccccc1OC(C)=O` [MSF 03, S-carboxymethylcysteine bis-acetylsalicylanhydride]: the 50% lethal dose (LD50) at 168 h in data set [1] (oral) turned out to be 4500 mg/kg; in data set [1] (sc, subcutaneous), 4200 mg/kg; in data set [2] (oral), 4300 mg/kg; in data set [2] (sc, subcutaneous), 4100 mg/kg.
In the case of “S-(carboxymethyl)-L-cysteine acetylsalicylanhydride [MSF 02]”, the LD50 in data set [3] (oral) is on record as 4800 mg/kg; in data set [3] (subcutaneous) it was 4500 mg/kg; in the data set on mice of Swiss stock (oral), 4600 mg/kg; with mice of Swiss stock (subcutaneous), 4400 mg/kg.

As usually defined, the LD50 is the dose expected to kill half of the subjects tested. The low end stands for a more toxic substance, the high end for a less toxic substance.
